Experimental data from patent US4769378A, “Indenopyrimidine aromatase inhibitors” (Eli Lilly and Company, priority 1986, dated 1988).
Like-named read-outs stand apart in the source and are kept apart here.

Columns and labels:
breast cancer = settings: Cancer Research, Vol. 42, Suppl 8 (1982); cited from earlier work
aromatase = molecular target: T1, aromatase (Rattus norvegicus, UniProt P22443); assay: Aromatase inhibition in the rat ovarian microsome assay; format: biochemical; settings: substrate (androstenedione) concentration 0.1 μM; rat ovarian microsomes; read-out: EC50 (concentration of compound required to achieve 50% inhibition of aromatase activity)
T1 construct: ovarian microsomes are obtained from rats treated with pregnant mares serum gonadotropin; from tissue; host or cells: rat ovary microsomes (rats treated with pregnant mares serum gonadotropin)
T1 sequence (P22443 1-508): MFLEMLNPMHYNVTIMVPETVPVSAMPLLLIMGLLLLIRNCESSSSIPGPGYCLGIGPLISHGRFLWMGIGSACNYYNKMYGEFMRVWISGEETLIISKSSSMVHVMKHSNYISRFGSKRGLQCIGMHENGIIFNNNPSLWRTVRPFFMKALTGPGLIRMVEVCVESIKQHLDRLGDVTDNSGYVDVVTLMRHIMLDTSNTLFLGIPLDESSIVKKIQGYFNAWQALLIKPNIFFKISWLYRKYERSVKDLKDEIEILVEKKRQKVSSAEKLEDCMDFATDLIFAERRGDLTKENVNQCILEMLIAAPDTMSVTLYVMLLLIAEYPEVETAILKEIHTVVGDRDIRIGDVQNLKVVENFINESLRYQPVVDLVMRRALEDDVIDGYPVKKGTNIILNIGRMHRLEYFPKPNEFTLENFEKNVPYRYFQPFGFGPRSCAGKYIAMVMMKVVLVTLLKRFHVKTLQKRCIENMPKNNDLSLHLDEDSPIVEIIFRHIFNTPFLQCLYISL
Description: In this test system, ovarian microsomes are obtained from rats treated with pregnant mares serum gonadotropin. Test compounds are added to reaction vials containing 0.1 μM 4-androstene-3,17-dione, 100,000 dpm 1,2[^3 H]-androstenedione, the microsomes and a NADPH generating system. The concentrations of the inhibitors tested ranged between 5 and 10000 nM. […] Potency is determined based on the concentration of inhibitor in nM required to produce a 50% inhibition of enzyme activity (EC50) when the concentration of substrate (androstenedione) is 0.1 μM.

[1] = system: Estrogen synthesis (aromatization); assay: Estrogen Synthesis Inhibition in Rats; format: in vivo, immature female Wistar rats; settings: Rattus norvegicus, po, 168 h, gavage; for response vs control in vivo at 3 mg/kg: 3 mg/kg × 7 days; for response vs control in vivo at 30 mg/kg: 30 mg/kg × 7 days; for response vs control in vivo at 10 mg/kg: 10 mg/kg × 7 days;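 as to Uterine Wt. %: 100% equals the stimulated control's weight gain over the unstimulated control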
Description: By virtue of their ability to inhibit the enzyme aromatase, the compounds of this invention are able to inhibit the synthesis of estrogens in mammals, thereby making the compounds useful in the treatment of estrogen-dependent diseases, such as breast cancer.
Immature female Wistar rats (45-55 grams) were divided into control and test groups of 2-8 animals each. Test compounds were administered for seven days daily by gavage in corn oil. Control animals received corn oil without the test compound. Beginning on the fourth day of the test, all animals treated with the test compound and one half of the control animals were given a subcutaneous injection of 1.0 mg of testosterone propionate in corn oil. The remaining control animals received only an equivalent volume of corn oil. On the seventh day of the test, rats treated with testosterone propionate were injected subcutaneously with 100 μCi of [^3 H]-testosterone in 50 μl of saline-ethanol (3:1).
After two hours, the animals were killed by decapitation. Uteri were isolated, trimmed of extraneous connective tissue, and weighed. […] In the control animals treated with testosterone propionate, estrogens produced by aromatization stimulated the uterus resulting in an increase in weight.
Ovaries from rats treated with [^3 H]-testosterone were excised, cleaned of extraneous tissue, and homogenized in 2.5 ml of a 1.0 mM potassium phosphate buffer containing 3.0 mM MgCl2.6H2 O, 320 mM sucrose, and 0.25% Triton X-100 (polyethylene glycol p-isooctyl phenyl ether, Rohm and Haas) at pH 6.5. The ovarian steroids were extracted with 1.5 ml of 9:1 toluene/ethanol to which had been added 25 to 100 mcg each of unlabelled estradiol, estriol, and estrone, and approximately 1000 dpm of [^14 C]-estradiol. The samples were vortexed, centrifuged at 500×g for 10 minutes, and the organic phase was transferred to a conical vial. Two additional extractions were performed on the residue in the same way. The pooled organic extracts were evaporated for subsequent thin-layer chromatography.
Ovarian proteins were precipitated by the addition of 5.0 ml of ethanol to the remaining aqueous phase. After an overnight incubation at 4° C., the samples were centrifuged at 1500×g for 10 minutes. The supernatant was discarded and the pellet was dissolved in 0.3 N potassium hydroxide. Protein was determined according to the method of Bradford, Analytical Biochemistry, 72, 248 (1976).
The organic residue from each above extraction was redissolved in 9:1 dichloromethane/methanol. The solution of each sample was applied to separate silica gel thin layer chromatography plates which contained a fluorescent indicator. The plates were developed the first dimension with 160:38:1.5:0.5 dichloromethane/ethyl acetate/methanol/acetic acid to within 3 cm of the top of the plate. After air-drying, the plate was developed in the second dimension with 180:19:1 dichloromethane/methanol/ammonium hydroxide. The plate was air-dried and viewed under 254 nm UV light.
The visible spots were marked and the plates were sprayed with primulin (0.001% in 4:1 acetone/water) according to the method of Wright, J. Chromatography, 59, 220 (1971) which allowed for the identification of additional steroids under 365 nm UV light. The spots were scraped from the plate using a glass wool plugged Pasteur pipet attached to a vacuum line. The steroids were eluted directly into scintillation vials by the addition of 0.2 ml of dichloromethane followed by two washes each of 2.0 ml of methanol. The organic solvent was evaporated and 10.0 ml of scintillation fluid (Beckman Ready Solv-NA) was added to the vials. Samples were analyzed by liquid scintillation spectrometry and the corrections were made based on the recoveries of the [^14 C]-steroid.
In Table 2, values for uterine weight are expressed as the respective weights of drug treated (DT), unstimulated corn oil control (UC), and stimulated corn oil control (SC) according to the calculation %=100 (DT-UC)/(SC-UC). […]

[2] = system: DMBA-induced mammary tumors; assay: DMBA-induced Mammary Tumor Inhibition; format: in vivo, female Sprague-Dawley rats
Description: Mammary tumors were produced in female Sprague-Dawley rats which were 50-60 days old by the gavage administration of 20 mg of 7,12-dimethylbenz[a]anthracene (DMBA). About six weeks after DMBA administration, the mammary glands were palpated at weekly intervals for the appearance of tumors. Whenever one or more tumors appeared and were measurable in an animal, that animal was selected for experimentation. […] Each control and test group contained 5-8 animals. Each test compound was administered in corn oil once daily by gavage. Every experiment included a group of control rats having tumors and were given corn oil vehicle by gavage. […] The area of each tumor was calculated by multiplying the shortest and longest diameters of the tumor. The treatment and measurement of animals continued for 4-6 weeks at which time the final areas of the tumors were determined. For each compound (and control) at each dose level, the change in the mean tumor area was determined. The mean change was analyzed for its significance using Dunnett's t-test.

[3] = 100 (DT-UC)/(SC-UC), read-out: Uterine Wt. %
[4] = ovaries, percent of testosterone-treated controls, read-out: % steroid concentration, estradiol
[5] = ovaries, percent of testosterone-treated controls, read-out: % steroid concentration, estrone

EC50 (aromatase)	SMILES	effect in treatment of breast cancer (breast cancer)	response vs control in vivo at 3 mg/kg [1, 3]	response vs control in vivo at 3 mg/kg [1, 4]	response vs control in vivo at 3 mg/kg [1, 5]	response vs control in vivo at 30 mg/kg [1, 3]	response vs control in vivo at 30 mg/kg [1, 4]	response vs control in vivo at 30 mg/kg [1, 5]	Final Tumor Area ± S.E. ([2]; Test III, 10 mg/kg daily by gavage, 6 weeks, control 2053 ± 778)	Final Tumor Area ± S.E. ([2]; Test III, 30 mg/kg daily by gavage, 6 weeks, control 2053 ± 778)	response vs control in vivo at 10 mg/kg [1, 3]	response vs control in vivo at 10 mg/kg [1, 4]	response vs control in vivo at 10 mg/kg [1, 5]	Final Tumor Area ± S.E. ([2]; Test I, 3 mg/kg daily by gavage, 4 weeks, control 741 ± 193)	Final Tumor Area ± S.E. ([2]; Test I, 10 mg/kg daily by gavage, 4 weeks, control 741 ± 193)	Final Tumor Area ± S.E. ([2]; Test I, 30 mg/kg daily by gavage, 4 weeks, control 741 ± 193)	Final Tumor Area ± S.E. ([2]; Test II, 10 mg/kg daily by gavage, 4 weeks, control 698 ± 78)	Final Tumor Area ± S.E. ([2]; Test II, 30 mg/kg daily by gavage, 4 weeks, control 698 ± 78)	Final Tumor Area ± S.E. ([2]; Test II, 50 mg/kg daily by gavage, 4 weeks, control 698 ± 78)
0.024 µM	Fc1ccc(C2c3ccc(F)cc3-c3ncncc32)cc1 (stereo not shown) [Example 6, 8-fluoro-5-(4-fluorophenyl)-5H-indeno[1,2-d]pyrimidine]	–	0.7%	10.2%	70.3%	6.9%	2.9%	57.1%	109 ± 62 mm^2	393 ± 254 mm^2	–	–	–	–	–	–	–	–	–
0.021 µM	Clc1ccc(C2c3ccccc3-c3ncncc32)cc1 (stereo not shown) [Example 2, 5-(4-chlorophenyl)-5H-indeno[1,2-d]pyrimidine]	–	49.1%	40.5%	106%	33.3%	19.4%	83.2%	–	–	–	–	–	–	–	–	287 ± 94 mm^2	814 ± 223 mm^2	552 ± 177 mm^2

Continued, compound first:

SMILES	EC50 (aromatase)	effect in treatment of breast cancer (breast cancer)	response vs control in vivo at 3 mg/kg [1, 3]	response vs control in vivo at 3 mg/kg [1, 4]	response vs control in vivo at 3 mg/kg [1, 5]	response vs control in vivo at 30 mg/kg [1, 3]	response vs control in vivo at 30 mg/kg [1, 4]	response vs control in vivo at 30 mg/kg [1, 5]	Final Tumor Area ± S.E. ([2]; Test III, 10 mg/kg daily by gavage, 6 weeks, control 2053 ± 778)	Final Tumor Area ± S.E. ([2]; Test III, 30 mg/kg daily by gavage, 6 weeks, control 2053 ± 778)	response vs control in vivo at 10 mg/kg [1, 3]	response vs control in vivo at 10 mg/kg [1, 4]	response vs control in vivo at 10 mg/kg [1, 5]	Final Tumor Area ± S.E. ([2]; Test I, 3 mg/kg daily by gavage, 4 weeks, control 741 ± 193)	Final Tumor Area ± S.E. ([2]; Test I, 10 mg/kg daily by gavage, 4 weeks, control 741 ± 193)	Final Tumor Area ± S.E. ([2]; Test I, 30 mg/kg daily by gavage, 4 weeks, control 741 ± 193)	Final Tumor Area ± S.E. ([2]; Test II, 10 mg/kg daily by gavage, 4 weeks, control 698 ± 78)	Final Tumor Area ± S.E. ([2]; Test II, 30 mg/kg daily by gavage, 4 weeks, control 698 ± 78)	Final Tumor Area ± S.E. ([2]; Test II, 50 mg/kg daily by gavage, 4 weeks, control 698 ± 78)
C[C@]12CCC(=O)C=C1CC[C@@H]1[C@@H]2CC[C@]2(C)OC(=O)CC[C@@H]12 [testololactone]	–	beneficial effect in treatment of breast cancer	–	–	–	–	–	–	–	–	–	–	–	–	–	–	–	–	–
CCC1(c2ccc(N)cc2)CCC(=O)NC1=O (stereo not shown) [aminoglutethimide]	–	beneficial effect in treatment of breast cancer	–	–	–	–	–	–	–	–	–	–	–	–	–	–	–	–	–
Clc1ccc(C2c3ccc(Cl)cc3-c3ncncc32)cc1 (stereo not shown) [Example 1, 8-chloro-5-(4-chlorophenyl)-5H-indeno[1,2-d]pyrimidine]	0.024 µM	–	50.2%	31.5%	31.5%	20.6%	23.6%	118%	–	–	37.3%	17.2%	31.4%	162 ± 93 mm^2	74 ± 45 mm^2	6 ± 6 mm^2	–	–	–
